Experimental data as given in patent US20260365698A1, “STAPLED PEPTIDES FOR SENSITIZATION OF CANCER TO TREATMENT” (Purdue Research Foundation, priority 2022, published 2026).
“Also recorded” adds a separate entry of the source. Bridge positions count the residues as written; N and C are the ends. Square brackets hold non-standard residues; d marks the D form. Peptide text beside a SMILES is read from it. S5 = C=CCCC[C@](C)(N)C(=O)O

Key:
[1] = tested on: A549 non-small cell lung cancer cells; experiment: MTT assay / live cell growth, combination with cisplatin; assay type: cell-based
Procedure: Percent dead in red color indicates higher percentage of death. Data are representative of three independent replicates.
The ability of compound N1S to increase sensitivity to chemotherapeutics was examined. A549 non-small cell lung cancer cells were seeded into a Corning® 96-Well Cell Culture Plate (clear, sterile, non-treated) and incubated for 24 hours. The cells were treated with cisplatin alone, compound NIS alone, or in combination. Immediately following treatment, the cells were placed into an Incucyte® S3 Live-Cell Analysis Instrument (Sartorius AG, Gottingen, Germany) and imaged every two hours for three days. The Incucyte® S3's analytical software was used to calculate cell confluency at each time point. Synergy was determined using the Chou-Talalay method.
Additionally, an MTT assay was performed on the plate of cells from the Incucyte® study, and a separate, identical plate of cells was incubated for 24 hours. MTT reagent (20 μL of 5 mM stock) was added to each well and incubated for three hours at 37 °C. Following incubation, the plate was spun down at 2,500 rpm for five minutes at room temperature and then aspirated to remove the media. […] The absorbance of each well was measured at 570 nm using a plate reader (Molecular Devices SpectraMax® iD5 Multi-Mode Microplate Reader). […]

A549 cells = experiment: Confocal microscopy of FITC-labeled peptides, cell permeability; assay type: cell-based
Procedure: To determine whether this was a result of poor cell permeability by compounds N2S and N3S, fluorophore labeled versions of these peptides were generated, and confocal microscopy was used to determine the abilities of these peptides to enter cells (FIG. 5C).
Briefly, A549 cells at 9.5×10^4 cells/ml in 600 μl media were plated on 10 mm glass-bottomed, 24-well plates (Chemglass Life Sciences Cell Culture Plate, 24-Well, Fisher Scientific, Waltham, MA) and cultured for overnight at 37 °C, 5% CO2, in complete growth medium (RPMI supplemented with 10% fetal calf serum, L-glutamine, and non-essential amino acids). The next day, cells were treated with fresh, pre-warmed complete growth medium supplemented with the desired FITC-labeled peptide or DMSO vehicle control at a final concentration of 100 μM FITC labeled peptide and 1% DMSO. After 90 minutes of treatment, cells were washed three times in warm PBS to remove excess peptide from the cell surface and left in modified Krebs-Ringer buffer solution [KRBH: 134 mM NaCl. 3.5 mM KCl. 1.2 mM KH2PO4, 0.5 mM MgSO4, 1.5 mM CaCl2), 5 mM NaHCO3, 10 mM HEPES (pH 7.4)] containing Hoechst stain at 1 μg/ml. Cells were immediately analyzed under a Nikon A1 confocal microscope (Resonant). The images were taken at 20× magnification with fluorescence excitation wavelengths at 409 for the Hoechst and 488 for the FITC. Images were processed using NIS-Elements AR. Dietrich et al., Cell permeable stapled peptide inhibitor of Wnt signaling that targets 0-catenin protein-protein interactions, Cell Chemical Biology 24(8): 958-968.e5 (2017); Dougherty et al., Enhancing the cell-permeability of stapled peptides with a cyclic cell-penetrating peptide, J Medicinal Chemistry 62(22): 10098 (2019).

HEK-293T cells = experiment: Toxicity to the cells in the luciferase assay; assay type: cell-based; settings: 16 hours, listed as NIS
Procedure: The peptides from Example 1 were screened for Nrf2 inhibition using a previously developed dual luciferase assay. Ren et al., Brusatol enhances the efficacy of chemotherapy by inhibiting the Nrf2-mediated defense mechanism, Biological Sciences 108(4): 1433-1438 (2011). Briefly, HEK-293T cells stably expressing ARE-firefly luciferase and TK-Renilla luciferase were used. The cells were treated with different concentrations of compounds N1 (SEQ ID NO: 3), N1 S (SEQ ID NO: 6), N2 (SEQ ID NO: 4), N2S (SEQ ID NO: 7), N3 (SEQ ID NO: 5), and N3S (SEQ ID NO: 8) for 16 hours. The cells were lysed in 1× passive lysis buffer, and both firefly luciferase and Renilla luciferase activities were measured using the Promega Dual-Luciferase™ Reporter (DLR™) Assay System and a luminometer (Turner Biosystems 20/20^n Luminometer). The samples were in triplicate for all concentrations of compounds (n=3).

red blood cells = experiment: Hemolysis assay; assay type: cell-based; settings: 100 μM
Procedure: (§1) Finally, a hemolysis assay was performed based on a method described in Hostetler et al. (2021), supra. The peptides were tested at a final concentration of 100 μM and an average of 0.3% hemolysis was observed (data not shown).

Hemolysis assay = assay type: cell-based; settings: red blood cells
Procedure: as §1

[2] = tested on: glutathione (GSH) in A549 cells; experiment: GSH-Glo glutathione quantification; assay type: cell-based; settings: 24 hours
Procedure: Data are from three independent experiments with standard deviation. ****p<0.0001, one-way ANOVA.
The manufacturer's instructions were followed. Cells were plated at a density of 20,000 cells/ml and treated with various concentrations of NIS for 24 hours.

MafG = molecular target: T1, MafG (Homo sapiens, UniProt O15525); experiment: Surface plasmon resonance (SPR); assay type: binding
T1 construct: made in house; host or cells: E. coli Rosetta (DE3), vector pET15B, Ni-NTA purified
Procedure: To determine the affinity of binding between MafG and compound NIS, surface plasmon resonance (SPR) was performed with biotin-labeled compound NIS and His-MafG. For all SPR-binding measurements, a Biacore 100-Instrument (Biacore-GE) was used. Binding between MafG and biotin-labeled compound NIS peptide was performed by first immobilizing the biotin N1S peptide on a SA chip (Cytiva, Marlborough, MA). The binding buffer (150 mM NaCl, 10 mM HEPES, pH 7.5, 1 mM MgCl2, 1 mM […] (TCEP) and 0.05% P-20) was used. Biotin-compound NIS (1 μM) was injected at a rate of 10 μl min^−1 for 10 minutes, immobilizing approximately 528 response units. Increasing concentrations of MafG (two-fold dilutions between 2.5 μM and 0.100 μM, including two blanks) were subsequently passed over the Biotin-compound N1S functionalized chip as well as a streptavidin reference surface. Multiple cycle analysis was carried out, without regenerating the chip between different MafG concentrations. Binding data was reference normalized and processed using Prism software, A one-site binding model was applied to the processed data set to determine binding parameters of MafG binding to N1S.

T1 sequence (O15525 whole entry): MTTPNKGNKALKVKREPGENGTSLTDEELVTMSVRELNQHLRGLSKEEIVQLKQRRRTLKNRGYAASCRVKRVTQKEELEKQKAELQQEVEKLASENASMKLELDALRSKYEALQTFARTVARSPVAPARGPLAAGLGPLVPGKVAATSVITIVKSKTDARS

cellular and nuclear permeability (A549 cells; FITC-labeled peptide, 100 μM, 90 minutes, A549 cells): good | entry into cells (A549 cells; summary statement): can enter cells | Kd (MafG; biotin-labeled N1S on SA chip, His-MafG passed over, one-site binding model, read-out: dissociation constant): 337 nM | direct binding to MafG (MafG; summary of in vitro analysis): directly binds MafG
SMILES: CC[C@H](C)[C@H](NC(C)=O)C(=O)N[C@H](C(=O)N[C@@H](CCC(=O)O)C(=O)N[C@@H](CC(C)C)C(=O)N[C@@H](CCC(=O)O)C(=O)N[C@@]1(C)CCCC=CCCC[C@@](C)(C(=O)N[C@@H](CC(C)C)C(=O)N[C@@H](CCCCN)C(=O)N[C@@H](CC(=O)O)C(=O)N[C@@H](CCC(=O)O)C(=O)N[C@@H](CCCCN)C(=O)N[C@@H](CCC(=O)O)C(N)=O)NC(=O)[C@H](CC(=O)O)NC(=O)[C@H](CC(C)C)NC(=O)[C@H](CC(=O)O)NC1=O)C(C)C [N1S] (Ac-IVELE[S5]DLD[S5]LKDEKE-NH2; staple 6-10)
growth compared to either treatment alone ([1]; 50 μM N1S combined with 6 μM cisplatin): greatly reduced levels of growth | sensitization of cancer cell lines to chemotherapeutics ([1]; combination with cisplatin): can greatly sensitize cancer cell lines to chemotherapeutics | toxicity to the cells (HEK-293T cells): no toxicity; also recorded: without showing toxicity | toxicity to red blood cells (red blood cells): no toxicity | hemolysis at 100 µM (Hemolysis assay): 0.3% | glutathione (GSH) levels [2]: Significant reductions
